Two compounds from patent US6043212A, “Recombinant C140 receptor, its agonists and antagonists, and nucleic acids encoding the receptor” (COR Therapeutics, Inc., priority 1995, dated 2000) can be followed below.

Experiment [1] deals with T1, wild-type mouse C140 receptor (Mus musculus, UniProt P55086).
T1 construct: Native receptors were produced by cloning the coding region of the receptor gene; expressed in transfected cells; host or cells: Xenopus laevis oocytes injected with capped cRNA from pSG-5 C140
T1 sequence (P55086 32-399 limits assumed): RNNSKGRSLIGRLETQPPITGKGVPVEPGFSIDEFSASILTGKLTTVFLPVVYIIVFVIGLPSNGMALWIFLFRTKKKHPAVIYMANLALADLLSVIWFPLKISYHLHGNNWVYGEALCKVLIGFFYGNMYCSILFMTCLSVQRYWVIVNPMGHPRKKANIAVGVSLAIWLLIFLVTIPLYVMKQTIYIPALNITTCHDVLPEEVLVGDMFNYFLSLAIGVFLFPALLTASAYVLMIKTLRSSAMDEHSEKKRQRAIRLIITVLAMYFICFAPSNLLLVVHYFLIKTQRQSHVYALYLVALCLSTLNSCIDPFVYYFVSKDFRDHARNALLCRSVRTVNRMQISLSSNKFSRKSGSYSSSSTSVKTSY
In words: 45Ca release by Xenopus oocytes expressing wild-type mouse C140 receptor. Type of experiment: cell-based. As to the method:
Agonist-induced increases in ^45 Ca release by oocytes expressing cRNA encoding C140 receptor or other recombinant cells producing C140 receptor are assessed by published techniques (Williams, J. A., et al., Proc Natl Acad Sci USA (1988) 85:4939-4943). Briefly, intracellular calcium pools are labeled by incubating groups of 30 oocytes in 300 μl calcium-free modified Barth's solution (MBSH) containing 50 μCi ^45 CaCl2 (10-40 mCi/mg Ca; Amersham) for 4 hours at RT. The labeled oocytes or cells are washed, then incubated in MBSH II without antibiotics for 90 minutes. Groups of 5 oocytes are selected and placed in individual wells in a 24-well tissue culture plate (Falcon 3047) containing 0.5 ml/well MBSH II without antibiotics. This medium is removed and replaced with fresh medium every 10 minutes; the harvested medium is analyzed by scintillation counting to determine ^45 Ca released by the oocytes during each 10-minute incubation. The 10-minute incubations are continued until a stable baseline of ^45 Ca release per unit time is achieved. Two additional 10-minute collections are obtained, then test medium including agonist is added and agonist-induced ^45 Ca release determined.
Oocytes from Xenopus laevis were harvested and prepared using published techniques (Coleman, A., in Hames, B. D., and Higgins, S. J., eds, Transcription and Translation: A Practical Approach, IRL Press, pp. 271-302; Williams, J. A., et al. Proc Natl Acad Sci USA (1988) 85:4939-4943]. To remove follicular cells, oocytes were incubated for 1.5 h with shaking in calcium-free Barth's containing 2 mg/ml each of collagenase 1A and hyaluronidase 1S. The oocytes were then washed five times in regular Barth's and incubated at 18° C. in Barth's medium containing 100 U/ml penicillin, 100 μg/ml streptomycin, and 2.5 mM sodium pyruvate. Stage V oocytes were selected and injected with 30 nl of cRNA (0.33 μg/μl water) or water alone, and then incubated with 0.25 ml of medium in groups of four/well in a 96-well culture plate. After 36 hours the oocytes were incubated with ^45 Ca (250 μCi/ml). After 12 h incubation the oocytes were washed and 0.2 ml of medium added and replaced every five minutes. The harvested medium was analyzed by scintillation counting. After five replacements to determine the baseline release of ^45 Ca, test medium with the agonist, e.g. SLIGRL (SEQ ID NO: 23), was added and the evoked ^45 Ca-release determined.
Oocytes were injected with capped cRNA (ca 10 ng) encoding wild-type mouse C140 receptor (WT) or either of the three mutant receptors 35Pro, 35Arg and 35His. After 36 hours, cRNA-injected and control water-injected, oocytes were loaded with ^45 Ca, and 12 hours thereafter peptide or trypsin-induced ^45 Ca release were determined as described above. The peptide SLIGRL (SEQ ID NO: 23) was added at 100 μM, and trypsin at 300 pM. The stimulation with the peptide was done on the same group of oocytes after the stimulation with trypsin. The data shown in Table 1 represent the mean of three replicate determinations, and denotes the increase compared to oocytes injected with water.
Various peptides were tested at 100 μM in the assay above using wild-type mouse C140 receptor, expressed in oocytes.

In experiment [2] the target is T2, mutant C140 receptor 35Arg (serine-35 replaced with arginine) (Mus musculus, UniProt P55086, S39R).
T2 construct: Site-directed mutagenesis was employed to construct mutant receptors in the pSG-5; expressed in transfected cells; host or cells: Xenopus laevis oocytes injected with capped cRNA
T2 sequence (P55086 32-399 S39R limits assumed): T1 sequence (P55086 32-399 limits assumed) with S8R
In words: 45Ca release by Xenopus oocytes expressing mutant C140 receptor 35Arg. Type of experiment: cell-based. To be noted: 35Arg receptor. The text has this:
Both native and mutant C140 receptors were produced in oocytes and activated with a peptide mimicking the new amino-terminus", or by the proteolytic enzyme trypsin (which cleaves the extracellular region). Native receptors were produced by cloning the coding region of the receptor gene, using the polymerase chain reaction, into the expression vector pSG-5 (Green, S. et al., Nucleic Acid Res (1988) 16:369). The orientation and integrity of the cloned coding region was verified by determining the nucleotide sequence with the Sanger chain-termination method. Site-directed mutagenesis was employed to construct mutant receptors in the pSG-5. […]
Oocytes from Xenopus laevis were harvested and prepared using published techniques (Coleman, A., in Hames, B. D., and Higgins, S. J., eds, Transcription and Translation: A Practical Approach, IRL Press, pp. 271-302; Williams, J. A., et al. Proc Natl Acad Sci USA (1988) 85:4939-4943]. To remove follicular cells, oocytes were incubated for 1.5 h with shaking in calcium-free Barth's containing 2 mg/ml each of collagenase 1A and hyaluronidase 1S. The oocytes were then washed five times in regular Barth's and incubated at 18° C. in Barth's medium containing 100 U/ml penicillin, 100 μg/ml streptomycin, and 2.5 mM sodium pyruvate. […] The harvested medium was analyzed by scintillation counting. […]

Where a chain is given by its changes, count along the chain named. Peptide text beside a SMILES is read from it.

Turning to trypsin, the “Fold increase in 45Ca” value is 6.6 fold in experiment [1] (WT receptor, trypsin at 300 pM, increase compared to water-injected oocytes, mean of three) and 0 fold in experiment [2] (trypsin at 300 pM, increase compared to water-injected oocytes).
Consider `CC[C@H](C)[C@H](NC(=O)[C@H](CC(C)C)NC(=O)[C@@H](N)CO)C(=O)NCC(=O)N[C@@H](CCCNC(=N)N)C(=O)N[C@@H](CC(C)C)C(=O)O` [SLIGRL] (H-SLIGRL-OH), for which the “Fold increase in 45Ca” value in experiment [1] (Table 2, peptides at 100 μM, wild-type mouse C140 receptor in oocytes) came out at 15 fold; in experiment [1] (WT receptor, peptide at 100 μM, same oocytes after trypsin stimulation, compared to water-injected oocytes), 11 fold; in experiment [2] (peptide at 100 μM, same oocytes after trypsin stimulation), 15 fold.
